Each structure is given as a SMILES string.

The first test deals with GST-Braf kinase domain and biotinylated E3 substrate adapter (VHL/EloB/EloC complex or CRBN318-425). Briefly: Dimerization assay (AlphaScreen/AlphaLisa), RAF/E3 dimerization. It is filed as binding. As to conditions: Table 15; relative value; compounds 4 fold serial dilutions from 20 μM. (In Alpha technology, singlet oxygen from a donor bead excites a nearby acceptor bead.)
Consider `Cc1ncc(NC(=O)c2cccc(C(F)(F)F)c2)cc1-c1cnc(OCCOCCOCCOCc2cn(CCCCCC(=O)Nc3cccc4c3C(=O)N(C3CCC(=O)NC3=O)C4=O)nn2)c(N2CCOCC2)c1` (stereo not shown) [Compound 1.007, N-(6′-(2-(2-(2-((1-(6-((2-(2,6-dioxopiperidin-3-yl)-1,3-dioxoisoindolin-4-yl)amino)-6-oxohexyl)-1H-1,2,3-triazol-4-yl)methoxy)ethoxy)ethoxy)ethoxy)-2-methyl-5′-morpholino-[3,3′-bipyridin]-5-yl)-3-(trifluoromethyl)benzamide], for which the RAF/E3 Dimerization result is “+ + +”.

The same test, now with this note: Table 17; relative value; compounds 4 fold serial dilutions from 20 μM.
For the molecule `Cc1ncc(NC(=O)c2cccc(C(F)(F)F)c2)cc1-c1cnc(OCCOCCOCC(=O)NCCOCCCc2cccc3c2C(=O)N(C2CCC(=O)NC2=O)C3=O)c(N2CCOCC2)c1` (stereo not shown) [Compound 2.023, N-(6′-((15-(2-(2,6-dioxopiperidin-3-yl)-1,3-dioxoisoindolin-4-yl)-8-oxo-3,6,12-trioxa-9-azapentadecyl)oxy)-2-methyl-5′-morpholino-[3,3′-bipyridin]-5-yl)-3-(trifluoromethyl)ben-zamide], the “RAF/E3 Dimerization” value is “+ (5% > RAF/E3 Dimerization)”.

Consider `O=C1CCC(N2C(=O)c3cccc(CCCOCCOCCNC(=O)c4cc(Oc5ccc(NC(=O)Nc6ccc(Cl)c(C(F)(F)F)c6)cc5)ccn4)c3C2=O)C(=O)N1` (stereo not shown) [Compound 2.030, 4-(4-(3-(4-chloro-3-(trifluoromethyl)phenyl)ureido)phenoxy)-N-(2-(2-(3-(2-(2,6-dioxopiperidin-3-yl)-1,3-dioxoisoindolin-4-yl)propoxy)ethoxy)ethyl)picolinamide], for which the “RAF/E3 Dimerization” value is on record as “++ (25% > RAF/E3 Dimerization ≥ 5%)”.

In the case of `Cc1ncc(NC(=O)c2cccc(C(F)(F)F)c2)cc1-c1cnc(OC2CCOCC2)c(N2CCN(C(=O)CCCc3cn(CCCCCC(=O)Nc4cccc5c4C(=O)N(C4CCC(=O)NC4=O)C5=O)nn3)CC2)c1` (stereo not shown) [Compound 2.049, N-(5′-(4-(4-(1-(6-((2-(2,6-dioxopiperidin-3-yl)-1,3-dioxoisoindolin-4-yl)amino)-6-oxohexyl)-1H-1,2,3-triazol-4-yl)butanoyl)piperazin-1-yl)-2-methyl-6′-((tetrahydro-2H-pyran-4-yl)oxy)-[3,3′-bipyridin]-5-yl)-3-(trifluoromethyl)benzamide], the “RAF/E3 Dimerization” value is “+ (5% > RAF/E3 Dimerization)”.

Regarding `Cc1ncsc1-c1ccc([C@H](C)NC(=O)[C@@H]2C[C@@H](O)CN2C(=O)[C@H](NC(=O)CCOCCOCCOCCOCCNC(=O)c2cc(Oc3ccc(NC(=O)Nc4ccc(Cl)c(C(F)(F)F)c4)cc3)ccn2)C(C)(C)C)cc1` [Compound 1.015, 4-(4-(3-(4-chloro-3-(trifluoromethyl)phenyl)ureido)phenoxy)-N-(17-((2S,4R)-4-hydroxy-2-(((S)-1-(4-(4-methylthiazol-5-yl)phenyl)ethyl)carbamoyl)pyrrolidine-1-carbonyl)-18,18-dimethyl-15-oxo-3,6,9,12-tetraoxa-16-azanonadecyl)picolinamide], the “RAF/E3 Dimerization” value is recorded as “+ (5% > RAF/E3 Dimerization)”.

For the molecule `Cc1ncsc1-c1ccc([C@H](C)NC(=O)[C@@H]2C[C@@H](O)CN2C(=O)[C@H](NC(=O)COCCOCCNC(=O)CCNc2nccc(-c3cn(CC(F)F)nc3-c3cnc4[nH]ccc4c3)n2)C(C)(C)C)cc1` [Compound 2.046, (2S,4R)-1-((R)-2-(tert-butyl)-15-((4-(1-(2,2-difluoroethyl)-3-(1H-pyrrolo[2,3-b]pyridin-5-yl)-1H-pyrazol-4-yl)pyrimidin-2-yl)amino)-4,13-dioxo-6,9-dioxa-3,12-diazapentadecan-1-oyl)-4-hydroxy-N—((S)-1-(4-(4-methylthiazol-5-yl)phenyl)ethyl)pyrrolidine-2-carboxamide], the “RAF/E3 Dimerization” value is listed as “+++ (50% > RAF/E3 Dimerization ≥ 25)”.

For `Cc1ncsc1-c1ccc([C@H](C)NC(=O)[C@@H]2C[C@@H](O)CN2C(=O)[C@H](NC(=O)COCCOCCOCCOCCCCCCn2cc(-c3ccnc(NCCC#N)n3)c(-c3cnc4[nH]ccc4c3)n2)C(C)(C)C)cc1` [Compound 2.045, (2S,4R)-1-((R)-2-(tert-butyl)-21-(4-(2-((2-cyanoethyl)amino)pyrimidin-4-yl)-3-(1H-pyrrolo[2,3-b]pyridin-5-yl)-H-pyrazol-1-yl)-4-oxo-6,9,12,15-tetraoxa-3-azahenicosan-1-oyl)-4-hydroxy-N—((S)-1-(4-(4-methylthiazol-5-yl)phenyl)ethyl)pyrrolidine-2-carboxamide], the “RAF/E3 Dimerization” value is “+++++ (RAF/E3 Dimerization ≥75%)”.

With `Cc1ncsc1-c1ccc([C@H](C)NC(=O)C2C[C@@H](O)CN2C(=O)C(NC(=O)CCOCCOCCNC(=O)c2cc(Oc3ccc(NC(=O)Nc4ccc(Cl)c(C(F)(F)F)c4)cc3)ccn2)C(C)(C)C)cc1` (stereo in doubt) [Compound 1.014, 4-(4-(3-(4-chloro-3-(trifluoromethyl)phenyl)ureido)phenoxy)-N-(2-(2-(3-(((R)-1-((2S,4R)-4-hydroxy-2-(((S)-1-(4-(4-methylthiazol-5-yl)phenyl)ethyl)carbamoyl)pyrrolidin-1-yl)-3,3-dimethyl-1-oxobutan-2-yl)amino)-3-oxopropoxy)ethoxy)ethyl)picolinamide], the “RAF/E3 Dimerization” value is recorded as “+ (5% > RAF/E3 Dimerization)”.

Take `Cc1ncc(NC(=O)c2cccc(C(F)(F)F)c2)cc1-c1cnc(OCCOCCOCC(=O)NCCOCCCc2cccc3c2CN(C2CCC(=O)NC2=O)C3=O)c(N2CCOCC2)c1` (stereo not shown) [Compound 2.019, N-(6′-((15-(2-(2,6-dioxopiperidin-3-yl)-1-oxoisoindolin-4-yl)-8-oxo-3,6,12-trioxa-9-azapentadecyl)oxy)-2-methyl-5′-morpholino-[3,3′-bipyridin]-5-yl)-3-(trifluoromethyl)benzamide]: the “RAF/E3 Dimerization” value is “+++ (50% > RAF/E3 Dimerization ≥ 25)”.

Turning to `Cc1ccc(NC(=O)c2cccc(C(F)(F)F)c2)cc1-c1cnc(OC(C)Cc2cnnn2CCCCCC(=O)Nc2cccc3c2C(=O)N(C2CCC(=O)NC2=O)C3=O)c(N2CCOCC2)c1` (racemic) [Compound 1.011, (±)-N-(3-(6-((1-(1-(6-((2-(2,6-dioxopiperidin-3-yl)-1,3-dioxoisoindolin-4-yl)amino)-6-oxohexyl)-1H-1,2,3-triazol-5-yl)propan-2-yl)oxy)-5-morpholinopyridin-3-yl)-4-methylphenyl)-3-(trifluoromethyl)benzamide], the “RAF/E3 Dimerization” value is given as “+ (5% > RAF/E3 Dimerization)”.

For the molecule `Cc1ncc(NC(=O)c2cccc(C(F)(F)F)c2)cc1-c1cnc(OCCOCCOCCOCc2cn(CCCCC(=O)N[C@@H](C(=O)N3C[C@H](O)C[C@H]3C(=O)N[C@@H](C)c3ccc(-c4scnc4C)cc3)C(C)(C)C)nn2)c(N2CCOCC2)c1` [Compound 2.009, (2S,4R)-1-((R)-3,3-dimethyl-2-(5-(4-((2-(2-(2-((2′-methyl-5-morpholino-5′-(3-(trifluoromethyl)benzamido)-[3,3′-bipyridin]-6-yl)oxy)ethoxy)ethoxy)ethoxy)methyl)-1H-1,2,3-triazol-1-yl)pentanamido)butanoyl)-4-hydroxy-N—((S)-1-(4-(4-methylthiazol-5-yl)phenyl)ethyl)pyrrolidine-2-carboxamide], the “RAF/E3 Dimerization” value was “+++ (50% > RAF/E3 Dimerization ≥ 25)”.

In the case of `O=C1CCC(N2Cc3c(CCCOCCOCCNC(=O)c4cc(Oc5ccc(NC(=O)Nc6ccc(Cl)c(C(F)(F)F)c6)cc5)ccn4)cccc3C2=O)C(=O)N1` (stereo not shown) [Compound 2.033, 4-(4-(3-(4-chloro-3-(trifluoromethyl)phenyl)ureido)phenoxy)-N-(2-(2-(3-(2-(2,6-dioxopiperidin-3-yl)-1-oxoisoindolin-4-yl)propoxy)ethoxy)ethyl)picolinamide], the “RAF/E3 Dimerization” value is “++ (25% > RAF/E3 Dimerization ≥ 5%)”.

For the molecule `O=C1CCC(N2Cc3c(CCCOCCNC(=O)c4cc(Oc5ccc(NC(=O)Nc6ccc(Cl)c(C(F)(F)F)c6)cc5)ccn4)cccc3C2=O)C(=O)N1` (stereo not shown) [Compound 2.032, 4-(4-(3-(4-chloro-3-(trifluoromethyl)phenyl)ureido)phenoxy)-N-(2-(3-(2-(2,6-dioxopiperidin-3-yl)-1-oxoisoindolin-4-yl)propoxy)ethyl)picolinamide], the “RAF/E3 Dimerization” value is “+ (5% > RAF/E3 Dimerization)”.

On to `Cc1ncsc1-c1ccc([C@H](C)NC(=O)[C@@H]2C[C@@H](O)CN2C(=O)[C@H](NC(=O)CCOCCOCCOCCOCCOCCOCCNC(=O)c2cc(Oc3ccc(NC(=O)Nc4ccc(Cl)c(C(F)(F)F)c4)cc3)ccn2)C(C)(C)C)cc1` [Compound 1.016, 4-(4-(3-(4-chloro-3-(trifluoromethyl)phenyl)ureido)phenoxy)-N—((R)-23-((2S,4R)-4-hydroxy-2-(((S)-1-(4-(4-methylthiazol-5-yl)phenyl)ethyl)carbamoyl)pyrrolidine-1-carbonyl)-24,24-dimethyl-21-oxo-3,6,9,12,15,18-hexaoxa-22-azapentacosyl)picolinamide], for which the “RAF/E3 Dimerization” value was “+ (5% > RAF/E3 Dimerization)”.

As to `O=C1CCC(N2C(=O)c3cccc(NC(=O)CCCCCn4cc(CCCCNC(=O)c5cc(Oc6ccc(NC(=O)Nc7ccc(Cl)c(C(F)(F)F)c7)cc6)ccn5)nn4)c3C2=O)C(=O)N1` (stereo not shown) [Compound 2.026, 4-(4-(3-(4-chloro-3-(trifluoromethyl)phenyl)ureido)phenoxy)-N-(4-(1-(6-((2-(2,6-dioxopiperidin-3-yl)-1,3-dioxoisoindolin-4-yl)amino)-6-oxohexyl)-1H-1,2,3-triazol-4-yl)butyl)picolinamide], the “RAF/E3 Dimerization” value was “+ (5% > RAF/E3 Dimerization)”.

With `Cc1ncc(NC(=O)c2cccc(C(F)(F)F)c2)cc1-c1cnc(OCCOCCOCC(=O)NCCCCCc2cccc3c2CN(C2CCC(=O)NC2=O)C3=O)c(N2CCOCC2)c1` (stereo not shown) [Compound 2.017, N-(6′-(2-(2-(2-((5-(2-(2,6-dioxopiperidin-3-yl)-1-oxoisoindolin-4-yl)pentyl)amino)-2-oxoethoxy)ethoxy)ethoxy)-2-methyl-5′-morpholino-[3,3′-bipyridin]-5-yl)-3-(trifluoromethyl)benzamide], the “RAF/E3 Dimerization” value is recorded as “++++ (75% > RAF/E3 Dimerization ≥ 50%)”.

Values taken from US10787443B2, “RAF-degrading conjugate compounds” (ZAMBONI CHEM SOLUTIONS INC., priority 2017, dated 2020).
